Laboratory results as given in paper PMC7606641 (Biochemical pharmacology, 2020).
Marks after values point to notes of the source that are not given here.

Assays:
[1] = type: physicochemical; conditions: pH 7.5
[2] = design: species or system CD-1 mice; conditions: mouse, in vivo, iv
[3] = design: species or system CD-1 mice; conditions: mouse, in vivo, iv; remark: listed apart in the source
[4] = design: species or system CD-1 mice; conditions: mouse, in vivo; for Blood to Brain Influx Ki: iv
[5] = design: species or system CD-1 mice; conditions: mouse, in vivo, iv; remark: listed apart in the source
[6] = Saturability of brain uptake; design: species or system CD-1 mice; conditions: mouse, in vivo, iv
[7] = design: species or system CD-1 mice; conditions: mouse, in vivo, iv; remark: listed apart in the source
[8] = in vivo; cited from earlier work

**Q.** For “YXEGTFTSDYSIYLDKQAAXEFVNWLLAGGPSSGAPPPSC-NH2 [Peptide 17]”, which “Lipid Solubility Partition Coefficient” value [1] is on record?
**A.** 0.0052 ± 0.0049

**Q.** What about the “Log Partition Coefficient (Log P)” value [1] of the same substance?
**A.** −2.564 ± 0.5921

**Q.** And the “125I-IRA remaining intact, Serum, 10 min” value [2]?
**A.** 95.77 ± 0.350%

**Q.** And the “125I-IRA remaining intact, Serum, 60 min” value [2]?
**A.** 81.20 ± 1.960^a %

**Q.** And the “125I-IRA remaining intact, Whole Brain, 10 min” value [2]?
**A.** 78.98 ± 3.930%

**Q.** What about the “125I-IRA remaining intact, Whole Brain, 60 min” value [2] of the same substance?
**A.** 52.91 ± 5.030^a %

**Q.** What about the “Half-Time Serum Clearance t1/2” value [3] of the same substance?
**A.** 39.61 min

**Q.** What about the “Initial Volume of Distribution in Brain Vi” value (from here on “Initial Volume”) [4] of the same substance?
**A.** 1.057 ± 0.1876 µL/g

**Q.** What about the “Blood to Brain Influx Ki” value [4] of the same substance?
**A.** 0.3489 ± 0.0228 µL/g/min

**Q.** What about the “Peak percent of injected 125I-IRA taken up per gram brain tissue (%Inj/g)” value (“Peak percent … per gram brain tissue (%Inj/g)” below) [5] of the same substance?
**A.** 0.15%

**Q.** What about the “Serum radioactivity, Without Unlabeled IRA” value [6] of the same substance?
**A.** 81.33 ± 6.720 cpm/μL

**Q.** And the “Whole Brain brain/serum ratio, Without Unlabeled IRA” value [6]?
**A.** 11.41 ± 0.528 µL/g

**Q.** And the “Capillary Depletion: %Parenchyma (percent of IRA reaching the brain found in parenchyma vs capillaries)” value [7]?
**A.** 73.2%

**Q.** What about the “Capillary Depletion: Capillary (capillary/serum ratio)” value [7] of the same substance?
**A.** 0.543 ± 0.178 µL/g

**Q.** And the “Capillary Depletion: Parenchyma (parenchyma/serum ratio)” value [7]?
**A.** 1.482 ± 0.462 µL/g

**Q.** With “YXEGTFTSDYSIYLDKQAAXEFVNWLLAGGPSSGAPPPSK-NH2 [DA3-CH]” as the substance, how does the “Lipid Solubility Partition Coefficient” value [1] read?
**A.** 0.0048 ± 0.0015

**Q.** What about the “Log Partition Coefficient (Log P)” value [1] of the same substance?
**A.** −2.325 ± 0.1318

**Q.** And the “125I-IRA remaining intact, Serum, 10 min” value [2]?
**A.** 93.26 ± 1.110%

**Q.** And the “125I-IRA remaining intact, Serum, 60 min” value [2]?
**A.** 73.65 ± 3.138^a %

**Q.** And the “125I-IRA remaining intact, Whole Brain, 10 min” value [2]?
**A.** 71.59 ± 12.14%

**Q.** What about the “125I-IRA remaining intact, Whole Brain, 60 min” value [2] of the same substance?
**A.** 26.71 ± 17.23^a %

**Q.** What about the “Degradation (loss of precipitable 125I-IRA) in serum from 10 to 60 min” value [2] of the same substance?
**A.** 19.6%

**Q.** What about the “Degradation (loss of precipitable 125I-IRA) in whole brain from 10 to 60 min” value [2] of the same substance?
**A.** 44.9%

**Q.** What about the “Half-Time Serum Clearance t1/2” value [3] of the same substance?
**A.** 42.57 min

**Q.** And the “Initial Volume” value [4]?
**A.** 2.186 ± 0.5638 µL/g

**Q.** What about the “Blood to Brain Influx Ki” value [4] of the same substance?
**A.** 0.3922 ± 0.0668 µL/g/min

**Q.** And the “Peak percent … per gram brain tissue (%Inj/g)” value [5]?
**A.** 0.08%

**Q.** What about the “Serum radioactivity, Without Unlabeled IRA” value [6] of the same substance?
**A.** 65.07 ± 6.275 cpm/μL

**Q.** What about the “Whole Brain brain/serum ratio, Without Unlabeled IRA” value [6] of the same substance?
**A.** 20.86 ± 1.943 µL/g

**Q.** What about the “Capillary Depletion: %Parenchyma (percent of IRA reaching the brain found in parenchyma vs capillaries)” value [7] of the same substance?
**A.** 86.02%

**Q.** And the “Capillary Depletion: Capillary (capillary/serum ratio)” value [7]?
**A.** 0.637 ± 0.073 µL/g

**Q.** What about the “Capillary Depletion: Parenchyma (parenchyma/serum ratio)” value [7] of the same substance?
**A.** 3.918 ± 0.993 µL/g

**Q.** Which “Lipid Solubility Partition Coefficient” value [1] does the source give for “HXEGTFTSDVSSYLEGQAAK^bEFIAWLVRGRG-OH [Semaglutide]” here?
**A.** 0.0353 ± 0.0016

**Q.** What about the “Log Partition Coefficient (Log P)” value [1] of the same substance?
**A.** −1.452 ± 0.0199

**Q.** What about the “125I-IRA remaining intact, Serum, 10 min” value [2] of the same substance?
**A.** 100.0 ± 0.031%

**Q.** And the “125I-IRA remaining intact, Serum, 60 min” value [2]?
**A.** 98.91 ± 0.029^a %

**Q.** What about the “125I-IRA remaining intact, Whole Brain, 10 min” value [2] of the same substance?
**A.** 95.55 ± 1.139%

**Q.** What about the “Degradation (loss of precipitable 125I-IRA) in serum from 10 to 60 min” value [2] of the same substance?
**A.** less than 2%

**Q.** And the “Degradation (loss of precipitable 125I-IRA) in whole brain from 10 to 60 min” value [2]?
**A.** less than 12%

**Q.** What about the “Half-Time Serum Clearance t1/2” value [3] of the same substance?
**A.** 149.31 min

**Q.** And the “Initial Volume” value [4]?
**A.** -0.340 ± 0.3285 µL/g

**Q.** What about the “Blood to Brain Influx Ki” value [4] of the same substance?
**A.** ns

**Q.** And the “Serum radioactivity, Without Unlabeled IRA” value [6]?
**A.** 692.1 ± 55.27 cpm/μL

**Q.** And the “Whole Brain brain/serum ratio, Without Unlabeled IRA” value [6]?
**A.** 9.637 ± 0.308 µL/g

**Q.** And the “Capillary Depletion: Capillary (capillary/serum ratio)” value [7]?
**A.** 0.434 ± 0.056 µL/g

**Q.** What about the “Capillary Depletion: Parenchyma (parenchyma/serum ratio)” value [7] of the same substance?
**A.** -0.850 ± 0.533 µL/g

**Q.** What does the source list for “YXEGTFTSDYSIYLDKQAAXEFVC ^*WLLAGGPSSGAPPPSK-NH2 [Peptide 20]”?
**A.** Lipid Solubility Partition Coefficient [1]: 0.0057 ± 0.0008; Log Partition Coefficient (Log P) [1]: −2.249 ± 0.0671; 125I-IRA remaining intact, Serum, 10 min [2]: 100.16 ± 0.120%; 125I-IRA remaining intact, Serum, 60 min [2]: 93.80 ± 1.850^a %; 125I-IRA remaining intact, Whole Brain, 10 min [2]: 99.4 ± 2.070%; Half-Time Serum Clearance t1/2 [3]: 43 min; Initial Volume of Distribution in Brain Vi [4]: 0.4075 ± 0.2728 µL/g; Peak percent of injected 125I-IRA taken up per gram brain tissue (%Inj/g) [5]: 0.05%; Serum radioactivity, Without Unlabeled IRA [6]: 217.3 ± 7.176 cpm/μL; Whole Brain brain/serum ratio, Without Unlabeled IRA [6]: 9.51 ± 0.421 µL/g; Capillary Depletion: %Parenchyma (percent of IRA reaching the brain found in parenchyma vs capillaries) [7]: 43.6%; Capillary Depletion: Capillary (capillary/serum ratio) [7]: 0.796 ± 0.252 µL/g; Capillary Depletion: Parenchyma (parenchyma/serum ratio) [7]: 0.615 ± 0.807 µL/g; Percent of IRA reaching the brain trapped in the capillaries [7]: 56.4%

**Q.** With “HAEGTFTSDVSSYLEGQAAK^aEFIAWLVRGRG-OH [Liraglutide]” as the substance, how does the “125I-IRA remaining intact, Serum, 10 min” value [2] read?
**A.** 101.2 ± 0.062%

**Q.** What about the “125I-IRA remaining intact, Serum, 60 min” value [2] of the same substance?
**A.** 100.18 ± 0.244^a %

**Q.** And the “125I-IRA remaining intact, Whole Brain, 10 min” value [2]?
**A.** 100.1 ± 4.206%

**Q.** And the “Degradation (loss of precipitable 125I-IRA) in serum from 10 to 60 min” value [2]?
**A.** less than 2%

**Q.** What about the “Degradation (loss of precipitable 125I-IRA) in whole brain from 10 to 60 min” value [2] of the same substance?
**A.** less than 12%

**Q.** What about the “Half-Time Serum Clearance t1/2” value [3] of the same substance?
**A.** 167.22 min

**Q.** What about the “Initial Volume” value [4] of the same substance?
**A.** 2.434 ± 0.5977 µL/g

**Q.** And the “Blood to Brain Influx Ki” value [4]?
**A.** ns

**Q.** And the “Capillary Depletion: %Parenchyma (percent of IRA reaching the brain found in parenchyma vs capillaries)” value [7]?
**A.** 28.7%

**Q.** What about the “Percent of IRA reaching the brain trapped in the capillaries” value [7] of the same substance?
**A.** 71.3%

**Q.** With “YXEGTFTSDYSIYLDKQAAXEFVNWLLAGGPSSGAPPPSK-NH2 [Peptide 18]” as the substance, how does the “Lipid Solubility Partition Coefficient” value [1] read?
**A.** 0.2493 ± 0.0239

**Q.** What about the “Log Partition Coefficient (Log P)” value [1] of the same substance?
**A.** −0.604 ± 0.0418

**Q.** And the “125I-IRA remaining intact, Serum, 10 min” value [2]?
**A.** 99.85 ± 0.020%

**Q.** What about the “125I-IRA remaining intact, Serum, 60 min” value [2] of the same substance?
**A.** 90.78 ± 4.440%

**Q.** What about the “125I-IRA remaining intact, Whole Brain, 10 min” value [2] of the same substance?
**A.** 107.8 ± 3.37%

**Q.** And the “Half-Time Serum Clearance t1/2” value [3]?
**A.** 32.37 min

**Q.** And the “Initial Volume” value [4]?
**A.** 0.2034 ± 0.1134 µL/g

**Q.** What about the “Blood to Brain Influx Ki” value [4] of the same substance?
**A.** ns

**Q.** And the “Whole Brain brain/serum ratio, Without Unlabeled IRA” value [6]?
**A.** 7.18 ± 0.202 µL/g

**Q.** What about the “Capillary Depletion: Capillary (capillary/serum ratio)” value [7] of the same substance?
**A.** 0.764 ± 0.092 µL/g

**Q.** And the “Capillary Depletion: Parenchyma (parenchyma/serum ratio)” value [7]?
**A.** -0.306 ± 0.219 µL/g

**Q.** Which “Percentage of injected dose entering the brain (%Inj/g)” value [8] does the source give for “leptin: hormone crossing the BBB, literature comparison” here?
**A.** 0.171%

**Q.** With “YXEGTFTSDYSIYLDKQAAXEFVNWLLAGGPSSGAPPPSKKKKKK-NH2 [DA-JC4]” as the substance, how does the “Lipid Solubility Partition Coefficient” value [1] read?
**A.** 0.0030 ± 0.0008

**Q.** What about the “Log Partition Coefficient (Log P)” value [1] of the same substance?
**A.** −2.520 ± 0.1184

**Q.** And the “125I-IRA remaining intact, Serum, 10 min” value [2]?
**A.** 85.66 ± 1.866%

**Q.** And the “125I-IRA remaining intact, Serum, 60 min” value [2]?
**A.** 63.32 ± 1.987^a %

**Q.** And the “125I-IRA remaining intact, Whole Brain, 10 min” value [2]?
**A.** 69.63 ± 16.36%

**Q.** And the “125I-IRA remaining intact, Whole Brain, 60 min” value [2]?
**A.** 47.99 ± 18.71%

**Q.** What about the “Half-Time Serum Clearance t1/2” value [3] of the same substance?
**A.** 151.94 min

**Q.** What about the “Initial Volume” value [4] of the same substance?
**A.** 2.495 ± 0.8554 µL/g

**Q.** What about the “Blood to Brain Influx Ki” value [4] of the same substance?
**A.** 0.6680 ± 0.1089 µL/g/min

**Q.** And the “Peak percent … per gram brain tissue (%Inj/g)” value [5]?
**A.** 0.17%

**Q.** What about the “Serum radioactivity, Without Unlabeled IRA” value [6] of the same substance?
**A.** 29.32 ± 2.014 cpm/μL

**Q.** What about the “Whole Brain brain/serum ratio, Without Unlabeled IRA” value [6] of the same substance?
**A.** 15.10 ± 1.243 µL/g

**Q.** And the “Capillary Depletion: %Parenchyma (percent of IRA reaching the brain found in parenchyma vs capillaries)” value [7]?
**A.** 89.7%

**Q.** What about the “Capillary Depletion: Capillary (capillary/serum ratio)” value [7] of the same substance?
**A.** 1.129 ± 0.597 µL/g

**Q.** And the “Capillary Depletion: Parenchyma (parenchyma/serum ratio)” value [7]?
**A.** 9.855 ± 2.751 µL/g
